These results are taken from patent US6506766B1 (Abbott Laboratories, priority 1998, dated 2003).

This assay concerns the target T1, human progesterone receptor-A [PRA] isoform (Homo sapiens, UniProt P06401).
T1 construct: host or cells: insect SF21 cells (baculovirus)
T1 sequence (P06401 1-769 isoform P06401-2): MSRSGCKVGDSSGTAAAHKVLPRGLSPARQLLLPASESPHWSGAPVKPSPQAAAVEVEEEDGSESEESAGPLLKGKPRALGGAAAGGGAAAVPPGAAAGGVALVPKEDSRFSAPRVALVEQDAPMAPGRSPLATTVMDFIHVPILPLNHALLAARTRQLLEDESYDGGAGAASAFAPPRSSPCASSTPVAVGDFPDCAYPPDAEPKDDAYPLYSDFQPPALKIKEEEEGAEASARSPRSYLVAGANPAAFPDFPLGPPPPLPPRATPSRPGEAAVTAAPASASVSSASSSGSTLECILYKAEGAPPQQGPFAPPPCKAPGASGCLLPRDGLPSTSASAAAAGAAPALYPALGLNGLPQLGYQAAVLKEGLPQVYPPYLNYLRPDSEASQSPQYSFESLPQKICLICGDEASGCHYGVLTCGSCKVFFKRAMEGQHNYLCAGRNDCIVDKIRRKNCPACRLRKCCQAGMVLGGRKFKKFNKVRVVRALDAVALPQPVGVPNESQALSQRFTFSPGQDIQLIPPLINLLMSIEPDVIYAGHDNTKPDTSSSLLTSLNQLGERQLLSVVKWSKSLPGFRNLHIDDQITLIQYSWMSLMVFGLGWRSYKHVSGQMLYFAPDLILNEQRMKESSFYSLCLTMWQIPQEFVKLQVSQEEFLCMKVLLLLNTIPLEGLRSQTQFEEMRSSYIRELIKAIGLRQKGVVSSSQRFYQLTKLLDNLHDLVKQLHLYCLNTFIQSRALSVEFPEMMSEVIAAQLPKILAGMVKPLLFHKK
Kind of assay: Radioligand binding with human progesterone receptor cytosol ([3H]-progesterone competition). The following applies: PRA cytosol expressed in insect SF21 cells, [3H]Prog ~0.8 nM, 4° C. overnight; Ki by Cheng-Prusoff, KL ~4.5 nM; read-out: Ki (nM) PR.

Structures are written as SMILES.

On to `COc1cccc2c1-c1ccc3c(c1C(=Cc1ccccc1)O2)C(C)=CC(C)(C)N3` (mixture of isomers) [Example 18, 2,5-Dihydro-10-methoxy-2,2,4-trimethyl-5-(phenylmethylene)-1H-[1]benzopyrano[3,4-f]quinoline], for which the Ki turned out to be 1040 nM.

In the case of `COc1cccc2c1-c1ccc3c(c1C(C1C=CCCCC1)O2)C(C)=CC(C)(C)N3` (mixture of isomers) [Example 144], the Ki was at least 10000 nM.

Regarding `COc1cccc2c1-c1ccc3c(c1C(C1C=CCC1)O2)C(C)=CC(C)(C)N3` (racemic) [Example 136], the Ki amounted to 2700 nM.

`C=CCC1Oc2ccc(OC(=O)CCC(=O)N(C)C)c(Cl)c2-c2ccc3c(c21)C(C)=CC(C)(C)N3` (racemic) [Example 421, (+/−)2,5-Dihydro-9-(4-N,N-dimethylamino-4-oxo-butanoyloxy)-10-chloro-2,2,4-trimethyl-5-allyl-1H-[1]benzopyrano[3,4-f]quinoline]: the Ki worked out at 11.6 nM.

Consider `COc1cccc2c1-c1ccc3c(c1C(c1cc(Cl)cc(Cl)c1)O2)C(C)=CC(C)(C)N3` (single isomer, unassigned; (+)) [Example 33, (+)-5-(3,5-Dichlorophenyl)-2,5-dihydro-10-methoxy-2,2,4-trimethyl-1H-[1]benzopyrano[3,4-f]quinoline], for which the inhibition constant (Ki) came to 8320 nM.

Turning to `COc1cccc2c1-c1ccc3c(c1C(c1cc(Cl)cc(Cl)c1)O2)C(C)=CC(C)(C)N3` (single isomer, unassigned; (-)) [Example 32, (−)-5-(3,5-Dichlorophenyl)-2,5-dihydro-10-methoxy-2,2,4-trimethyl-1H-[1]benzopyrano[3,4-f]quinoline], the Ki amounted to 1560 nM.

With `CCC1([C@@H]2Oc3ccc(O)c(OC)c3-c3ccc4c(c32)C(C)=CC(C)(C)N4)CC=CCC1` (single isomer, unassigned; (-)) [Example 263], the Ki is 59.6 nM.

Regarding `COc1cccc2c1-c1ccc3c(c1C(c1cc(Cl)cc(Cl)c1)O2)C(C)=CC(C)(C)N3` (stereo not drawn) [Example 19, 5-(3,5-Dichlorophenyl)-2,5-dihydro-10-methoxy-2,2,4-trimethyl-1H-[1]benzopyrano[3,4-f]quinoline], the Ki amounted to 4970 nM.

As to `CCCCC1Oc2cccc(OC)c2-c2ccc3c(c21)C(C)=CC(C)(C)N3` (stereo not drawn) [Example 20, 5-Butyl-2,5-dihydro-10-methoxy-2,2,4-trimethyl-1H-[1]benzopyrano[3,4-f]quinoline], the Ki was determined as 1680 nM.

Consider `COc1cccc2c1-c1ccc3c(c1C(CC(C)=O)O2)C(C)=CC(C)(C)N3` (stereo not drawn) [Example 45, 1-(2,5-Dihydro-10-methoxy-2,2,4-trimethyl-1H-[1]benzopyrano[3,4-f]quinolin-5-yl)-2-propanone], for which the Ki was at least 10000 nM.

Consider `COc1cccc2c1-c1ccc3c(c1C(Cc1ccccc1)O2)C(C)=CC(C)(C)N3` (stereo not drawn) [Example 53, 2,5-Dihydro-10-methoxy-2,2,4-trimethyl-5-(phenylmethyl)-1H-[1]benzopyrano[3,4-f]quinoline], for which the inhibitory constant (Ki) was determined as 2910 nM.

For `COc1cccc2c1-c1ccc3c(c1C(C)O2)C(C)=CC(C)(C)N3` (stereo not drawn) [Example 57, 2,5-Dihydro-10-methoxy-2,2,4,5-tetramethyl-1H-[1]benzopyrano[3,4-f]quinoline], the inhibitory constant (Ki) was found to be 4280 nM.

As for `COc1cccc2c1-c1ccc3c(c1C(CCN(C)C)O2)C(C)=CC(C)(C)N3` (stereo not drawn) [Example 64, 2,5-Dihydro-10-methoxy-2,2,4,N,N-pentamethyl-1H-[1]benzopyrano[3,4-f]quinoline5-ethanamine], the Ki came to 1670 nM.

Turning to `COc1cccc2c1-c1ccc3c(c1C(CCCO)O2)C(C)=CC(C)(C)N3` (stereo not drawn) [Example 69, 2,5-Dihydro-10-methoxy-2,2,4-trimethyl-1H-[1]benzopyrano[3,4-f]quinoline-5-propanol], the Ki is 17300 nM.

Consider `C#CCOc1cccc(C2Oc3cccc(OC)c3-c3ccc4c(c32)C(C)=CC(C)(C)N4)c1` (stereo not drawn) [Example 92, 2,5-Dihydro-10-methoxy-2,2,4-trimethyl-5-[3-(2-propynyloxy)phenyl]-1H-[1]benzopyrano[3,4-f]quinoline], for which the Ki is at least 10000 nM.

In the case of `CNc1cc(C)cc(C2Oc3cccc(OC)c3-c3ccc4c(c32)C(C)=CC(C)(C)N4)c1` (stereo not drawn) [Example 114, 3-(2,5-Dihydro-10-methoxy-2,2,4-trimethyl-1H-[1]benzopyrano[3,4-f]quinolin-5-methyl)-5,N-dimethylbenzenamine], the Ki was at least 10000 nM.

For the molecule `C=CCNc1cccc(C2Oc3cccc(OC)c3-c3ccc4c(c32)C(C)=CC(C)(C)N4)c1` (stereo not drawn) [Example 117, 3-(2,5-Dihydro-10-methoxy-2,2,4-trimethyl-1H-[1]benzopyrano[3,4-f]quinolin-5-yl)-N-(2-propenyl)benzenamine], the Ki is at least 10000 nM.

Regarding `COc1cccc2c1-c1ccc3c(c1C(C1C=CCCCCC1)O2)C(C)=CC(C)(C)N3` (stereo not drawn) [Example 143, 2,5-Dihydro-10-methoxy-5-(3-cyclooctenyl)-2,2,4-trimethyl-1H-[1]benzopyrano[3,4f]quinoline], the Ki amounted to 8100 nM.

`COc1cccc2c1-c1ccc3c(c1C(CC1=CCCCC1)O2)C(C)=CC(C)(C)N3` (stereo not drawn) [Example 145, 2,5-Dihydro-10-methoxy-5-(1-cyclohexenylmethyl)-2,2,4-trimethyl-1H-[1]benzopyrano[3,4-f]quinoline]: the Ki is at least 10000 nM.

As to `C=C(Br)CC1Oc2cccc(OC)c2-c2ccc3c(c21)C(C)=CC(C)(C)N3` (stereo not drawn) [Example 147, 2,5-Dihydro-10-methoxy-5-(2-bromo-3-propenyl)-2,2,4-trimethyl-1H-[1]benzopyrano[3,4-f]quinoline], the inhibitory constant (Ki) is 9300 nM.

Regarding `C=CC(=C)CC1Oc2cccc(OC)c2-c2ccc3c(c21)C(C)=CC(C)(C)N3` (stereo not drawn) [Example 172], the inhibitory constant (Ki) came out at 9900 nM.

Consider `C=C(CC1Oc2cccc(OC)c2-c2ccc3c(c21)C(C)=CC(C)(C)N3)C(=O)OC` (stereo not drawn) [Example 173, 2,5-Dihydro-10-methoxy-5-(2-carbomethoxy-3-propenyl)-2,2,4-trimethyl-1H-[1]benzopyrano[3,4-f]quinoline], for which the Ki is at least 10000 nM.

As for `COc1cccc2c1-c1ccc3c(c1C(CC=C1CCCCCC1)O2)C(C)=CC(C)(C)N3` (stereo not drawn) [Example 189, 2,5-Dihydro-10-methoxy-5-(2-cycloheptylidenylethyl)-2,2,4-trimethyl-1H-[1]benzopyrano[3,4-f]quinoline], the Ki was determined as 1700 nM.

Turning to `COc1cccc2c1-c1ccc3c(c1C(CCO)O2)C(C)=CC(C)(C)N3` (stereo not drawn) [Example 199, 2,5-Dihydro-10-methoxy-5-(2-hydroxyethyl)-2,2,4-trimethyl-1H-[1]benzopyrano[3,4-f]quinoline], the Ki was at least 10000 nM.

Turning to `CCOC(=O)C1Oc2cccc(OC)c2-c2ccc3c(c21)C(C)=CC(C)(C)N3` (stereo not drawn) [Example 208, 2,5-Dihydro-10-methoxy-5-(carboethoxy)-2,2,4-trimethyl-1H-[1]benzopyrano[3,4-f]quinoline], the Ki came to 970 nM.

With `COc1cccc2c1-c1ccc3c(c1C(C1CCCC1)O2)C(C)=CC(C)(C)N3` (stereo not drawn) [Example 209, 2,5-Dihydro-10-methoxy-5-(cyclopentyl)-2,2,4-trimethyl-1H-[1]benzopyrano[3,4-f]quinoline], the Ki stood at 5460 nM.

On to `COc1cccc2c1-c1ccc3c(c1C(C1CCCCC1)O2)C(C)=CC(C)(C)N3` (stereo not drawn) [Example 212, 2,5-Dihydro-10-methoxy-5-(cyclohexyl)-2,2,4-trimethyl-1H-[1]benzopyrano[3,4-f]quinoline], for which the Ki is at least 10000 nM.

As usually defined, the Ki is the dissociation constant of the complex between target and ligand, obtained from inhibition or displacement.
